Blank lines part the entries; values can stand above or below the molecule they belong to. Starred links: 1 amine or outer side, 2 acyl side, 3 side chain; linkers in the order of their positions; H or OH if unused. Positions of bridges follow the written chain, without caps; N, C: chain ends. Non-standard residues stand in square brackets, D forms with d. Residues, ends and D or L forms follow the SMILES beside them. TATA = O=C(CC[*:1])N1CN(C(=O)CC[*:2])CN(C(=O)CC[*:3])C1; Phe(4-F) = N[C@@H](Cc1ccc(F)cc1)C(=O)O; β3hR = N=C(N)NCCC[C@H](N)CC(=O)O
Experiments:
[1] = biological target: T1, human β-FXIIa (Homo sapiens, UniProt P00748); assay: Protease inhibition assay (Example 2); assay type: biochemical; conditions: for improvement of inhibitory activity / affinity: relative to parent peptide 2
T1 construct: human β-FXIIa, a naturally occurring proteolytic product of FXIIa comprising only the catalytic domain; purchased Molecular Innovations HFXIIAB
T1 sequence (P00748 373-615 limits assumed, other chains not shown): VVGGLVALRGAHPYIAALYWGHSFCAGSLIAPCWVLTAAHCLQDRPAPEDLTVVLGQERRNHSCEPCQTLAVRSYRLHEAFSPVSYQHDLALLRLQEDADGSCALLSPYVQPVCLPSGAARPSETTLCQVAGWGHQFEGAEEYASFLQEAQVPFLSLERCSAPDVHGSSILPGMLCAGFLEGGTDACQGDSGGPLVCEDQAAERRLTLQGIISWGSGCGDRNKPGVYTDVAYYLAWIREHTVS
Method: The inhibitory activity of bicyclic peptides was determined by incubation with proteases and quantification of their residual activity with a fluorogenic substrate. Residual enzymatic activities were measured in buffer containing 10 mM Tris-CI, pH 7.4, 150 mM NaCl, 10 mM MgCl2, 1 mM CaCl2, 0.1% w/v BSA, 0.01% v/v Triton-X100, and 5% v/v DMSO in a volume of 150 μL. In a first series of experiments 50 μM of the fluorogenic substrate Z-Gly-Gly-Arg-AMC and 2.5 nM of enzyme (human p-FXIIa, HFXIIAB; Molecular Innovations) was used.
Dilutions of peptides were prepared ranging from 0.00001-4 μM. Fluorescence intensity was measured with an Infinite M200Pro fluorescence plate reader (excitation at 368 nm, emission at 467 nm; Tecan, Männedorf, Switzerland). The reactions were performed at 25° C., Sigmoidal curves were fitted to the data using the following dose response equation wherein x=peptide concentration, y=% activity of reaction without peptide, A1=100%, A2=0%, p=1. IC50 values were derived from the fitted curve.

[2] = test system: intrinsic coagulation pathway; assay: aPTT in human plasma (Example 2); assay type: biochemical
Method: Coagulation times (aPTT, PT) were determined in human plasma using a blood coagulation analyzer (STart. Hemostasis coagulation analyzer, Diagnostica Stago). Extrinsic coagulation was triggered with Innovin (recombinant human tissue factor, synthetic phospholipids and calcium in stabilized HEPES buffer system; Dade Behring; Siemens). Intrinsic coagulation was triggered with Pathromtin* SL (Siemens). Pooled normal human plasma used in this study was provided by Innovative research (USA).
The ability to selectively suppress the intrinsic coagulation pathway was assessed in in vitro coagulation assays. Activated partial thromboplastin time (aPTT) and prothrombin time (PT) measure the time to coagulation upon initiation of coagulation either via the intrinsic (aPTT) or the extrinsic pathway (PT). These tests have been performed in human plasma in the presence of different concentrations of FXIIa-inhibitors. Selective FXIIa inhibition is expected to increase aPTT but not PT. […] At a concentration of 5 μM peptide inhibitor no coagulation via the intrinsic pathway occurred within 120 s. Additionally, there was a correlation between inhibitory activity against FXIIa and extent of aPTT prolongation.

[3] = in vitro; conditions: human, plasma
Method: Peptide (2 μl of 2 mM in H2O) was added to 398 μl human plasma (final peptide concentration was 10 μM in 400 μl final volume). The mixture was incubated in the water bath at 37° C. At 8 different time points (0 h, 30 min, 1 h, 2 h, 4 h, 8 h, 12 h, 24 h and in some cases 48 h) a sample of 30 μl was removed, diluted to 200 μl with the same buffer used for protease inhibition assay (see above) and heat-inactivated for 20 min at 65° C. During this step proteases present in plasma are being inactivated, that would otherwise interfere with the subsequently performed enzymatic assay. […] Before analysis, plasma samples were centrifuged for 5 min at 16′000 g and the supernatant was collected. A twofold dilution series ranging from 0.0005-0.5 μM was prepared. IC50 values were derived from the fitted curve using the equation indicated above. Residual inhibition in % was calculated using the following formula: IC50, 0h/IC50, xh*100 wherein IC50, 0h is the functional strength of the inhibitor at time point 0 and IC50, xh the functional strength of inhibitor after one of the different plasma incubation period mentioned above.
The activity of the plasma proteases was heat-inactivated by incubation of the samples at 65° C. for 10 minutes.

[4] = biological target: T1, human β-FXIIa; assay: Protease inhibition assay (Example 3); assay type: biochemical; conditions: for improvement of Ki / binding: relative to FXII618 (1)
Method: The inhibitory activity of the synthesized bicyclic peptides was determined by incubation with the protease and quantification of the residual activity at various peptide concentrations using a fluorogenic substrate. A 2 mM (by weight) stock solution in H2O was made for each peptide. For the assay, serial dilutions were made from the peptide stock solution using aqueous buffer containing 10 mM TRIS, 150 mM NaCl, 10 mM MgCl (hexahydrate), 1 mM CaCl2 (dihydrate), 0.01% (v/v) Triton X-100, 0.1% (w/v) BSA and pH adjusted to 7.4. The final concentration of human 3-FXIIa (HFXIIAB; Molecular Innovations) was 1 nM or 0.5 nM. […] The final concentration of the fluorogenic substrate Boc-Q-G-R-AMC (Bachem) was 50 μM and the final DMSO content was 5%. The fluorescence was measured using an Infinite M200 Pro plate reader (Tecan) with filters 368 nm for excitation and 467 nm for emission. The measurement was performed for 60 min with a read every minute at 25° C. IC50 and Ki values were calculated using GraphPad Prism 5 software.

[5] = test system: FXIIa; conditions: cited from earlier work

improvement of inhibitory activity / affinity [1]: 2 fold
SMILES: CC(C)C[C@@H]1NC(=O)[C@H](CCC(N)=O)NC(=O)[C@H](CCCNC(=N)N)NC(=O)[C@@H]2CSCCC(=O)N3CN(CN(C3)C(=O)CCSC[C@H](NC(=O)[C@@H](N)CCCNC(=N)N)C(=O)N[C@@H](Cc3ccccc3F)C(=O)N[C@@H](CCCNC(=N)N)C(=O)N[C@@H](CC(C)C)C(=O)N3CCC[C@H]3C(=O)N2)C(=O)CCSC[C@@H](C(=O)N[C@@H](CCCNC(=N)N)C(=O)N[C@@H](Cc2c[nH]c3ccccc23)C(N)=O)NC(=O)[C@H](CCCNC(=N)N)NC1=O [peptide 56]

SMILES: CC(C)C[C@@H]1NC(=O)[C@H](CCC(N)=O)NC(=O)[C@H](CCCNC(=N)N)NC(=O)[C@@H]2CSCCC(=O)N3CN(CN(C3)C(=O)CCSC[C@H](NC(=O)[C@@H](N)CCCNC(=N)N)C(=O)N[C@@H](Cc3ccc(F)cc3)C(=O)N[C@@H](CCCNC(=N)N)C(=O)N[C@@H](CC(C)C)C(=O)N3CCC[C@H]3C(=O)N2)C(=O)CCSC[C@@H](C(=O)N[C@@H](CCCNC(=N)N)C(N)=O)NC(=O)[C@H](CCCNC(=N)N)NC1=O [peptide 61]
aPTT prolongation compared with peptide 1 [2]: significantly increased aPTT prolongation

half-life at 10 μM [3]: 38.7 h
SMILES: CC(C)C[C@@H]1NC(=O)[C@H](CCC(N)=O)NC(=O)[C@H](Cc2c[nH]cn2)NC(=O)[C@@H]2CSCCC(=O)N3CN(CN(C3)C(=O)CCSC[C@H](NC(=O)[C@@H](CO)NC(=O)[C@H](N)CCCNC(=N)N)C(=O)N[C@@H](Cc3ccc(F)cc3)C(=O)N[C@@H](CCCNC(=N)N)C(=O)N[C@@H](CC(C)C)C(=O)N3CCC[C@H]3C(=O)N2)C(=O)CCSC[C@@H](C(=O)N[C@@H](CCCNC(=N)N)C(N)=O)NC(=O)[C@H](CCCNC(=N)N)NC1=O [JS34] (H-[dR][dS]C[Phe(4-F)]RLPCHQLRCR-NH2; linker 3-8-13 via TATA; N-terminus and C-terminus assumed)

Ki [1]: 932 ± 80 nM
SMILES: CC(C)C[C@@H]1NC(=O)[C@H](CCC(N)=O)NC(=O)[C@H](CCCNC(=N)N)NC(=O)[C@@H]2CSCCC(=O)N3CN(CN(C3)C(=O)CCSC[C@H](N)C(=O)N[C@@H](Cc3ccccc3)C(=O)N[C@@H](CCCNC(=N)N)C(=O)N[C@@H](CC(C)C)C(=O)N3CCC[C@H]3C(=O)N2)C(=O)CCSC[C@@H](C(=O)N[C@@H](CCCNC(=N)N)C(N)=O)NC(=O)[C@H](CCCNC(=N)N)NC1=O [peptide 62] (H-CFRLPCRQLRCR-NH2; linker 1-6-11 via TATA)

improvement of Ki / binding [4]: 1.3 fold
SMILES: CC(C)C[C@@H]1NC(=O)[C@H](CCC(N)=O)NC(=O)[C@H](CCCNC(=N)N)NC(=O)[C@@H]2CSCCC(=O)N3CN(CN(C3)C(=O)CCSC[C@H](NC(=O)[C@@H](N)CCCNC(=N)N)C(=O)N[C@@H](Cc3ccccc3)C(=O)N[C@@H](CCCNC(=N)N)C(=O)N[C@@H](CC(C)C)C(=O)N3CCC[C@H]3C(=O)N2)C(=O)CCSCC[C@@H](C(=O)N[C@@H](CCCNC(=N)N)C(N)=O)NC(=O)[C@H](CCCNC(=N)N)NC1=O [peptide 105]

Ki [1]: 18.5 to 43.1 nM
half-life at 10 μM [3]: 21.7 ± 2.5 h
SMILES: CC(C)C[C@@H]1NC(=O)[C@H](CCC(N)=O)NC(=O)[C@H](CCCNC(=N)N)NC(=O)[C@@H]2CSCCC(=O)N3CN(CN(C3)C(=O)CCSC[C@H](NC(=O)[C@@H](N)CCNC(=N)N)C(=O)N[C@@H](Cc3ccccc3)C(=O)N[C@@H](CCCNC(=N)N)C(=O)N[C@@H](CC(C)C)C(=O)N3CCC[C@H]3C(=O)N2)C(=O)CCSC[C@@H](C(=O)N[C@@H](CCCNC(=N)N)C(N)=O)NC(=O)[C@H](CCCNC(=N)N)NC1=O [peptide 71]

half-life at 10 μM [3]: 144 ± 30 h
SMILES: CC(C)C[C@@H]1NC(=O)[C@H](CCC(N)=O)NC(=O)[C@H](Cc2c[nH]cn2)NC(=O)[C@@H]2CSCCC(=O)N3CN(CN(C3)C(=O)CCSC[C@H](NC(=O)[C@@H](CO)NC(=O)[C@H](N)CCCNC(=N)N)C(=O)N[C@@H](Cc3ccc(F)cc3)C(=O)N[C@@H](CCCNC(=N)N)C(=O)N[C@@H](CC(C)C)C(=O)N3CCC[C@H]3C(=O)N2)C(=O)CCSC[C@@H](C(=O)N[C@@H](CCCNC(=N)N)C(N)=O)NC(=O)C[C@H](CCCNC(=N)N)NC1=O [JS33] (H-[dR][dS]C[Phe(4-F)]RLPCHQL[β3hR]CR-NH2; linker 3-8-13 via TATA; N-terminus and C-terminus assumed)

improvement of inhibitory activity / affinity [1]: 2.5 fold
SMILES: Cc1cccc(C[C@@H]2NC(=O)[C@@H](NC(=O)[C@@H](N)CCCNC(=N)N)CSCCC(=O)N3CN4CN(C3)C(=O)CCSC[C@H](NC(=O)[C@@H]3CCCN3C(=O)[C@H](CC(C)C)NC(=O)[C@H](CCCNC(=N)N)NC2=O)C(=O)N[C@@H](CCCNC(=N)N)C(=O)N[C@@H](CCC(N)=O)C(=O)N[C@@H](CC(C)C)C(=O)N[C@@H](CCCNC(=N)N)C(=O)N[C@H](C(=O)N[C@@H](CCCNC(=N)N)C(=O)N[C@@H](Cc2c[nH]c3ccccc23)C(N)=O)CSCCC4=O)c1 [peptide 52]

SMILES: N=C(N)NCCCC(NC(=O)C(Cc1ccccc1)NC(=O)C1CCCN1)C(=O)CCl [PCK, D-Pro-Phe-Arg chloromethyl ketone, reference compound]
IC50 [5]: 180 nM

reduction of inhibitory activity / affinity ([1]; relative to parent peptide (peptide 2 or peptide 1)): 10 fold
SMILES: CC(C)C[C@@H]1NC(=O)[C@H](CCC(N)=O)NC(=O)[C@H](CCCNC(=N)N)NC(=O)[C@@H]2CSCCC(=O)N3CN(CN(C3)C(=O)CCSC[C@H](NC(=O)[C@@H](N)CCCNC(=N)N)C(=O)N[C@@H](Cc3ccccc3)C(=O)N[C@@H](CCCCN)C(=O)N[C@@H](CC(C)C)C(=O)N3CCC[C@H]3C(=O)N2)C(=O)CCSC[C@@H](C(=O)N[C@@H](CCCNC(=N)N)C(=O)N[C@@H](Cc2c[nH]c3ccccc23)C(N)=O)NC(=O)[C@H](CCCNC(=N)N)NC1=O [peptide 10] (H-RCFKLPCRQLRCRW-NH2; linker 2-7-12 via TATA)

half-life at 10 μM [3]: 21.9 h
SMILES: CC(C)C[C@@H]1NC(=O)[C@H](CCC(N)=O)NC(=O)[C@H](CCCNC(=N)N)NC(=O)[C@@H]2CSCCC(=O)N3CN(CN(C3)C(=O)CCSC[C@H](NC(=O)[C@@H](CO)NC(=O)[C@H](N)CCCNC(=N)N)C(=O)N[C@@H](Cc3ccc(F)cc3)C(=O)N[C@@H](CCCNC(=N)N)C(=O)N[C@@H](CC(C)C)C(=O)N3CCC[C@H]3C(=O)N2)C(=O)CCSC[C@@H](C(=O)N[C@@H](CCCNC(=N)N)C(N)=O)NC(=O)C[C@H](CCCNC(=N)N)NC1=O [JS35] (H-[dR][dS]C[Phe(4-F)]RLPCRQL[β3hR]CR-NH2; linker 3-8-13 via TATA; N-terminus and C-terminus assumed)

improvement of inhibitory activity / affinity [1]: around 3 fold
SMILES: CC(C)C[C@@H]1NC(=O)[C@H](CCC(N)=O)NC(=O)[C@H](CCCNC(=N)N)NC(=O)[C@@H]2CSCCC(=O)N3CN(CN(C3)C(=O)CCSC[C@H](NC(=O)[C@@H](N)CCCNC(=N)N)C(=O)N[C@@H](Cc3cccnc3)C(=O)N[C@@H](CCCNC(=N)N)C(=O)N[C@@H](CC(C)C)C(=O)N3CCC[C@H]3C(=O)N2)C(=O)CCSC[C@@H](C(=O)N[C@@H](CCCNC(=N)N)C(=O)N[C@@H](Cc2c[nH]c3ccccc23)C(N)=O)NC(=O)[C@H](CCCNC(=N)N)NC1=O [peptide 54]

Ki [4]: 18 ± 2 nM
SMILES: CC(C)C[C@@H]1NC(=O)[C@H](CCC(N)=O)NC(=O)[C@H](CCCNC(=N)N)NC(=O)[C@@H]2CSCCC(=O)N3CN(CN(C3)C(=O)CCSC[C@H](NC(=O)[C@@H](N)CCCNC(=N)N)C(=O)N[C@@H](Cc3ccccc3)C(=O)N[C@@H](CCCNC(=N)N)C(=O)N[C@@H](CC(C)C)C(=O)N3CCC[C@H]3C(=O)N2)C(=O)CCSCC[C@@H](C(=O)N[C@@H](CCCNC(=N)N)C(N)=O)NC(=O)C[C@H](CCCNC(=N)N)NC1=O [compound 107]

Ki [4]: 5.4 ± 0.1 nM
improvement of Ki / binding [4]: 4 fold
SMILES: CC(C)C[C@@H]1NC(=O)[C@H](CCC(N)=O)NC(=O)[C@H](CCCNC(=N)N)NC(=O)[C@@H]2CSCCC(=O)N3CN(CN(C3)C(=O)CCSC[C@H](NC(=O)[C@@H](N)CCCNC(=N)N)C(=O)N[C@@H](Cc3ccccc3)C(=O)N[C@@H](CCCNC(=N)N)C(=O)N[C@@H](CC(C)C)C(=O)N3CCC[C@H]3C(=O)N2)C(=O)CCSC[C@@H](C(=O)N[C@@H](CCCNC(=N)N)C(N)=O)NC(=O)C[C@H](CCCNC(=N)N)NC1=O [compound 100]

Reference: US20180118786A1, “NOVEL lNHIBITORS OF THE ENZYME ACTIVATED FACTOR XII (FXIIA)” (ECOLE POLYTECHNIQUE FEDERALE DE LAUSANNE (EPFL), priority 2015, published 2018)
